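48-hour exposure; five concentrations; linearly interpolated endpoints. At the GI50, growth is halved.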 Calls of active or inactive are those of the source. No stated cut-off is given here; in the data, active = GI50 up to about 1.1 µM and inactive = higher.
How the values were obtained:
Assay in all cases: growth of human tumour cells (NCI), 48 h
UO-31 = tested on: UO-31
A498 = tested on: A498
IGROV-1 = tested on: IGROV-1
MCF7 = tested on: MCF7
TK-10 = tested on: TK-10
MOLT-4 = tested on: MOLT-4
SW-620 = tested on: SW-620
SK-MEL-28 = tested on: SK-MEL-28
ACHN = tested on: ACHN
CAKI-1 = tested on: CAKI-1
A549 = tested on: A549
BT-549 = tested on: BT-549
SN12C = tested on: SN12C
OVCAR-3 = tested on: OVCAR-3
HOP-62 = tested on: HOP-62
T47D = tested on: T47D
OVCAR-5 = tested on: OVCAR-5
NCI-H226 = tested on: NCI-H226
HCC 2998 = tested on: HCC 2998

Compound | GI50 (UO-31) | GI50 (A498) | GI50 (IGROV-1) | GI50 (MCF7) | GI50 (TK-10) | GI50 (MOLT-4) | GI50 (SW-620) | GI50 (SK-MEL-28) | GI50 (ACHN) | GI50 (CAKI-1) | GI50 (A549) | GI50 (BT-549) | GI50 (SN12C) | GI50 (OVCAR-3) | GI50 (HOP-62) | GI50 (T47D) | GI50 (OVCAR-5) | GI50 (NCI-H226) | GI50 (HCC 2998)
CC(C)CNC(=O)O | > 100 µM (inactive) | > 100 µM (inactive) | > 100 µM (inactive) | > 100 µM (inactive) | > 100 µM (inactive) | > 100 µM (inactive) | > 100 µM (inactive) | > 100 µM (inactive) | > 100 µM (inactive) | > 100 µM (inactive) | > 100 µM (inactive) | > 100 µM (inactive) | > 100 µM (inactive) | > 100 µM (inactive) | > 100 µM (inactive) | > 100 µM (inactive) | > 100 µM (inactive) | > 100 µM (inactive) | 
CCC(=O)Nc1ncnc2ncn(C(=O)CC)c12 | > 100 µM (inactive) | > 100 µM (inactive) | > 100 µM (inactive) | > 100 µM (inactive) | > 100 µM (inactive) | > 100 µM (inactive) | > 100 µM (inactive) | > 100 µM (inactive) | > 100 µM (inactive) | > 100 µM (inactive) | > 100 µM (inactive) | > 100 µM (inactive) | > 100 µM (inactive) | > 100 µM (inactive) | > 100 µM (inactive) | > 100 µM (inactive) | > 100 µM (inactive) |  | > 100 µM (inactive)
COCCCN(Cc1cc(OC)c(OC)c(OC)c1)C(=S)Nc1cccc(Cl)c1 | 26.1 µM (inactive) | 28.3 µM (inactive) | 34.4 µM (inactive) | 21.7 µM (inactive) | 47 µM (inactive) | 13.4 µM (inactive) | 31.8 µM (inactive) | 27.5 µM (inactive) | 28.6 µM (inactive) | 21.5 µM (inactive) | 29 µM (inactive) | 22.6 µM (inactive) | 24.4 µM (inactive) | 41.6 µM (inactive) | 42.6 µM (inactive) | 12.2 µM (inactive) | 20.8 µM (inactive) |  | 39.1 µM (inactive)
O=C1CCCSCCCC(=O)CCCSCCC1 | > 100 µM (inactive) |  | > 100 µM (inactive) | > 100 µM (inactive) | > 100 µM (inactive) | > 100 µM (inactive) | > 100 µM (inactive) | > 100 µM (inactive) |  |  | > 100 µM (inactive) | > 100 µM (inactive) | > 100 µM (inactive) | > 100 µM (inactive) | > 100 µM (inactive) | > 100 µM (inactive) | > 100 µM (inactive) |  | > 100 µM (inactive)
COc1cc(C2c3cc4c(cc3OC(NN=C(C)C)C2C)OCO4)cc(OC)c1O (stereo not drawn) | 46.9 µM (inactive) |  | 15.7 µM (inactive) | 12.4 µM (inactive) | 25.4 µM (inactive) |  | 6.93 µM (inactive) | 11.5 µM (inactive) |  | 61.5 µM (inactive) | 22.9 µM (inactive) | 12.2 µM (inactive) | 8.39 µM (inactive) | 19.5 µM (inactive) |  | 69.2 µM (inactive) | 64.4 µM (inactive) | > 100 µM (inactive) | 14.4 µM (inactive)
CC[C@H](C)C1=C(O)[N@+]2([O-])Oc3ccc(-c4c(O)c(O)c(-c5ccc(OC(C)=O)cc5)c(OC(C)=O)c4OC(C)=O)cc3O[C@]2([C@@H](C)CC)C(=O)N1O | > 50 µM (inactive) | 12.9 µM (inactive) | 8.85 µM (inactive) | 24.2 µM (inactive) | 25.5 µM (inactive) | 12.7 µM (inactive) | 10.7 µM (inactive) | 33 µM (inactive) | 26.3 µM (inactive) | 34.4 µM (inactive) | 16.3 µM (inactive) | 32.7 µM (inactive) | 17.2 µM (inactive) | 16.4 µM (inactive) | 32 µM (inactive) | 21.7 µM (inactive) | 47.1 µM (inactive) |  | 11.7 µM (inactive)
Cc1nc(N)c(N2CCN(Cc3ccccc3)CC2)c(O)n1 | > 100 µM (inactive) | > 100 µM (inactive) |  | > 100 µM (inactive) | > 100 µM (inactive) | > 100 µM (inactive) | > 100 µM (inactive) | > 100 µM (inactive) | > 100 µM (inactive) |  | > 100 µM (inactive) | > 100 µM (inactive) | > 100 µM (inactive) | > 100 µM (inactive) | > 100 µM (inactive) | > 100 µM (inactive) | > 100 µM (inactive) | > 100 µM (inactive) | > 100 µM (inactive)
NC(C(F)(F)F)(C(F)(F)F)P(=O)(Cc1ccccc1)Cc1ccccc1 | > 100 µM (inactive) |  | > 100 µM (inactive) | > 100 µM (inactive) | > 100 µM (inactive) | > 100 µM (inactive) | > 100 µM (inactive) | > 100 µM (inactive) | > 100 µM (inactive) | > 100 µM (inactive) | > 100 µM (inactive) | > 100 µM (inactive) | > 100 µM (inactive) | > 100 µM (inactive) | 83.2 µM (inactive) | > 100 µM (inactive) | > 100 µM (inactive) |  | > 100 µM (inactive)
COc1ccc2c(c1)CCC1=CC3(CCC12C)SCCS3 (stereo not drawn) |  |  | 6.19 µM (inactive) | 3.48 µM (inactive) | > 10 µM (inactive) | 3.8 µM (inactive) | 4.56 µM (inactive) | 5.24 µM (inactive) | 5.3 µM (inactive) | 7.52 µM (inactive) | 8.05 µM (inactive) | > 10 µM (inactive) | 9.25 µM (inactive) | 3.3 µM (inactive) | > 10 µM (inactive) | 6.03 µM (inactive) |  |  | 7.8 µM (inactive)
COc1ccc(C2SCC(=O)N2NC(=O)C(C)Oc2ccccc2Cl)cc1 (stereo not drawn) | 70.5 µM (inactive) | 28.1 µM (inactive) | 56.2 µM (inactive) | 32.4 µM (inactive) | 63.2 µM (inactive) | 27 µM (inactive) | 49.4 µM (inactive) | > 100 µM (inactive) | 38.5 µM (inactive) | > 100 µM (inactive) | 35.5 µM (inactive) | 85.7 µM (inactive) | 63.2 µM (inactive) |  |  | 27.2 µM (inactive) | > 100 µM (inactive) | 51.6 µM (inactive) | > 100 µM (inactive)
Nc1c(Cl)cc(-c2nc3ccccc3s2)cc1Cl | > 100 µM (inactive) | 0.288 µM (active) | 0.328 µM (active) | 0.522 µM (active) | 0.501 µM (active) | > 100 µM (inactive) | > 100 µM (inactive) | > 100 µM (inactive) | > 100 µM (inactive) |  | > 100 µM (inactive) | > 100 µM (inactive) | > 100 µM (inactive) | > 100 µM (inactive) | > 100 µM (inactive) | 4.16 µM (inactive) |  | > 100 µM (inactive) | > 100 µM (inactive)
O=C1c2ccccc2C(=O)c2c(NCCNC(=O)C3CCCN3)ccc(NCCNC(=O)C3CCCN3)c21 (stereo not drawn) | 31.5 µM (inactive) |  | 62.7 µM (inactive) | 30.8 µM (inactive) | > 100 µM (inactive) | 22.1 µM (inactive) | 40.4 µM (inactive) | 41.7 µM (inactive) | 53.7 µM (inactive) | > 100 µM (inactive) | > 100 µM (inactive) | 29.9 µM (inactive) | 46 µM (inactive) | 69.8 µM (inactive) | 45 µM (inactive) | 30 µM (inactive) | 51.4 µM (inactive) | > 100 µM (inactive) | 35.9 µM (inactive)
CC1=NN(c2cc(Cl)c(S(=O)(=O)O)cc2Cl)C2(C1)C(Cl)C(=O)N2c1nc2ccccc2s1 (stereo not drawn) | 22.2 µM (inactive) | 80 µM (inactive) | 35 µM (inactive) | 46.2 µM (inactive) | 68.5 µM (inactive) | 45.6 µM (inactive) | > 100 µM (inactive) | > 100 µM (inactive) | > 100 µM (inactive) | > 100 µM (inactive) | > 100 µM (inactive) | > 100 µM (inactive) | > 100 µM (inactive) |  |  | 66.1 µM (inactive) | > 100 µM (inactive) | 53.5 µM (inactive) | > 100 µM (inactive)
CCOC(=O)N1CCN(c2c(C)nc(C)nc2O)CC1 | > 100 µM (inactive) | > 100 µM (inactive) | > 100 µM (inactive) | > 100 µM (inactive) | > 100 µM (inactive) | > 100 µM (inactive) | > 100 µM (inactive) | > 100 µM (inactive) | > 100 µM (inactive) | > 100 µM (inactive) | > 100 µM (inactive) | > 100 µM (inactive) | > 100 µM (inactive) | > 100 µM (inactive) | > 100 µM (inactive) | > 100 µM (inactive) |  | > 100 µM (inactive) | > 100 µM (inactive)
O=C(/C=C/c1ccc(Cl)cc1)c1ccc(Cl)s1 | 51.8 µM (inactive) | 19.1 µM (inactive) | 49.2 µM (inactive) | 4.8 µM (inactive) | 85.3 µM (inactive) | 27.7 µM (inactive) | 22 µM (inactive) | 50.1 µM (inactive) | 87.3 µM (inactive) |  | 62.2 µM (inactive) | 27 µM (inactive) | > 100 µM (inactive) | 58.7 µM (inactive) | > 100 µM (inactive) | 46 µM (inactive) | > 100 µM (inactive) |  | 22.2 µM (inactive)
O=C(O)C1OC1C(=O)O (stereo not drawn) | > 100 µM (inactive) | > 100 µM (inactive) | > 100 µM (inactive) | > 100 µM (inactive) | > 100 µM (inactive) |  | > 100 µM (inactive) | > 100 µM (inactive) | > 100 µM (inactive) | > 100 µM (inactive) | > 100 µM (inactive) | > 100 µM (inactive) | > 100 µM (inactive) | > 100 µM (inactive) | > 100 µM (inactive) | > 100 µM (inactive) | > 100 µM (inactive) | > 100 µM (inactive) | > 100 µM (inactive)
